In PMC8111447 (Frontiers in Pharmacology, 2021):

Legend:
Test in all cases: Kinase panel (Eurofins)
Type in all cases: biochemical
Details in all cases: n = 2; for inhibition at 1 µM: at 1 μmol/L; for IC50: read-out: IC50 kinase inhibition
[1] = biological target: T1, BRK(h) (Homo sapiens, UniProt Q13882)
T1 construct: purchased Eurofins
Text: (§1) These receptors have a methionine gatekeeper in their kinase domains, and are related to hyperglycemia in other clinical trials of EGFR TKI, such as Co-1686.

[2] = biological target: T2, JAK3(h) (Homo sapiens, UniProt P52333)
T2 construct: purchased Eurofins
T2 sequence (P52333 1-1124): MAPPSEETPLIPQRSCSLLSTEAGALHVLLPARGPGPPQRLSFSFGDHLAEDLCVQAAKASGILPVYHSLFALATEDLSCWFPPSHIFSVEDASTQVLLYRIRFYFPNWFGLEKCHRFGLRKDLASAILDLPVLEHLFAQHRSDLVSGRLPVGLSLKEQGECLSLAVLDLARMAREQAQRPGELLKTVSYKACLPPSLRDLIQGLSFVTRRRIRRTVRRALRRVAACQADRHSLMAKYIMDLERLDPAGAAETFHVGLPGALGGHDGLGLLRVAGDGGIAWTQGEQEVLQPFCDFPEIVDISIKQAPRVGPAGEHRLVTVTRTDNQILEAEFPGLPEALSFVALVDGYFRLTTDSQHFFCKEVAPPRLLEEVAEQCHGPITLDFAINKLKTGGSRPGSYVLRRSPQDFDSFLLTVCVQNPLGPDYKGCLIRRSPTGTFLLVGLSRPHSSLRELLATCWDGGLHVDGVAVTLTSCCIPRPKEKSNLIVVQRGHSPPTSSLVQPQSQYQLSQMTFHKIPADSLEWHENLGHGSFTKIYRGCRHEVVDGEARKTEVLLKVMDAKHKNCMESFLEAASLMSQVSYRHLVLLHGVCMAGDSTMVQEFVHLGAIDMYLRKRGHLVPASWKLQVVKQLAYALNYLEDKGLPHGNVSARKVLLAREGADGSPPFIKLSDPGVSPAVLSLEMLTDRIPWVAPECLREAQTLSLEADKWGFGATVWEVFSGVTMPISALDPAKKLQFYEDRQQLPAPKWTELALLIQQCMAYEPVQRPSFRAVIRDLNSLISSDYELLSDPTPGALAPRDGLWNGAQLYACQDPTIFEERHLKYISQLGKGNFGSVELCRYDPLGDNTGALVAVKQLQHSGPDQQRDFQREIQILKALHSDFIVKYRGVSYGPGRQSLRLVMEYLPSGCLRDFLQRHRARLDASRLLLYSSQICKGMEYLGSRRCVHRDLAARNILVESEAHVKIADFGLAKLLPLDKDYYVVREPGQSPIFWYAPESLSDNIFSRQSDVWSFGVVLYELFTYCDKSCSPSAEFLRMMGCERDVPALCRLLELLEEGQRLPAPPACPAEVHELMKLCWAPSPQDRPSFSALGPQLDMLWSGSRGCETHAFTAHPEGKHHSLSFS
Text: as §1

[3] = biological target: T3, MYO3B(h) (Homo sapiens, UniProt Q8WXR4)
T3 construct: purchased Eurofins
T3 sequence (Q8WXR4 1-1341): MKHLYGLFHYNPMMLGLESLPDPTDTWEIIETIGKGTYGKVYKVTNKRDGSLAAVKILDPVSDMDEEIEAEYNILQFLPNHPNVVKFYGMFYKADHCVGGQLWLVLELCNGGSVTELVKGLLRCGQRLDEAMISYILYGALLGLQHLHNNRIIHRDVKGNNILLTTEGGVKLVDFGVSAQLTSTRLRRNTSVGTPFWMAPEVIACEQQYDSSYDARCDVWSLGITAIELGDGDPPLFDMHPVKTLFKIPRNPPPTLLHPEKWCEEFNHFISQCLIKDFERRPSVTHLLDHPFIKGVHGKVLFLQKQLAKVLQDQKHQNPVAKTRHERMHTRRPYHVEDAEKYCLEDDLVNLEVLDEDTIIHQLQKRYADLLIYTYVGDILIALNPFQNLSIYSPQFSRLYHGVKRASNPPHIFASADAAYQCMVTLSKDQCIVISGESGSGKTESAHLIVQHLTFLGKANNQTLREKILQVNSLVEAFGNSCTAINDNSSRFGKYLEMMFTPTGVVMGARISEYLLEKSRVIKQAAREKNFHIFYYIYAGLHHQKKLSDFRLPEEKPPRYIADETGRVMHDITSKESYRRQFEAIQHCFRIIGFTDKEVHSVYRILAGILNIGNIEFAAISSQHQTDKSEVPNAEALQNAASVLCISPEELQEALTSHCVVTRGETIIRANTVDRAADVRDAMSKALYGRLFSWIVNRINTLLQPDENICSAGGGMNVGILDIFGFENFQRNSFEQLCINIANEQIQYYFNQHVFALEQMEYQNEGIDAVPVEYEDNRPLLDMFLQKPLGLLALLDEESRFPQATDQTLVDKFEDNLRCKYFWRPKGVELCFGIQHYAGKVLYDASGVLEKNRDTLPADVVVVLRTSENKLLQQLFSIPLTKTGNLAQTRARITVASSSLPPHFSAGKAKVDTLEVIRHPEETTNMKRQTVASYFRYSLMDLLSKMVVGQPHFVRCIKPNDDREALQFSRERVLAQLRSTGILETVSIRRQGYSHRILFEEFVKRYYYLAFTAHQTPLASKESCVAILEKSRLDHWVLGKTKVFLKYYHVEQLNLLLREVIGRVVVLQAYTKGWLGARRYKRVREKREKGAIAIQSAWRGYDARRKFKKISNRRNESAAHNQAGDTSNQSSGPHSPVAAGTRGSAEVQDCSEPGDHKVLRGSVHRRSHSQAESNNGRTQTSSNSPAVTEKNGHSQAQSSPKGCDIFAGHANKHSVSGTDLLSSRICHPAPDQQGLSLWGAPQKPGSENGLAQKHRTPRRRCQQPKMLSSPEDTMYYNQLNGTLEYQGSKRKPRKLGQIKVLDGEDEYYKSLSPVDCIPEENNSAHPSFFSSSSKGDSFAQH
Text: as §1

[4] = biological target: T4, ErbB2(h) (Homo sapiens, UniProt P04626)
T4 construct: purchased Eurofins
Text: as §1

[5] = biological target: T5, IR(h), activated (Homo sapiens, UniProt P06213)
T5 construct: purchased Eurofins
Text: as §1

[6] = biological target: T6, IGF-1R(h) (Homo sapiens, UniProt P08069)
T6 construct: purchased Eurofins
T6 sequence (P08069 31-1367): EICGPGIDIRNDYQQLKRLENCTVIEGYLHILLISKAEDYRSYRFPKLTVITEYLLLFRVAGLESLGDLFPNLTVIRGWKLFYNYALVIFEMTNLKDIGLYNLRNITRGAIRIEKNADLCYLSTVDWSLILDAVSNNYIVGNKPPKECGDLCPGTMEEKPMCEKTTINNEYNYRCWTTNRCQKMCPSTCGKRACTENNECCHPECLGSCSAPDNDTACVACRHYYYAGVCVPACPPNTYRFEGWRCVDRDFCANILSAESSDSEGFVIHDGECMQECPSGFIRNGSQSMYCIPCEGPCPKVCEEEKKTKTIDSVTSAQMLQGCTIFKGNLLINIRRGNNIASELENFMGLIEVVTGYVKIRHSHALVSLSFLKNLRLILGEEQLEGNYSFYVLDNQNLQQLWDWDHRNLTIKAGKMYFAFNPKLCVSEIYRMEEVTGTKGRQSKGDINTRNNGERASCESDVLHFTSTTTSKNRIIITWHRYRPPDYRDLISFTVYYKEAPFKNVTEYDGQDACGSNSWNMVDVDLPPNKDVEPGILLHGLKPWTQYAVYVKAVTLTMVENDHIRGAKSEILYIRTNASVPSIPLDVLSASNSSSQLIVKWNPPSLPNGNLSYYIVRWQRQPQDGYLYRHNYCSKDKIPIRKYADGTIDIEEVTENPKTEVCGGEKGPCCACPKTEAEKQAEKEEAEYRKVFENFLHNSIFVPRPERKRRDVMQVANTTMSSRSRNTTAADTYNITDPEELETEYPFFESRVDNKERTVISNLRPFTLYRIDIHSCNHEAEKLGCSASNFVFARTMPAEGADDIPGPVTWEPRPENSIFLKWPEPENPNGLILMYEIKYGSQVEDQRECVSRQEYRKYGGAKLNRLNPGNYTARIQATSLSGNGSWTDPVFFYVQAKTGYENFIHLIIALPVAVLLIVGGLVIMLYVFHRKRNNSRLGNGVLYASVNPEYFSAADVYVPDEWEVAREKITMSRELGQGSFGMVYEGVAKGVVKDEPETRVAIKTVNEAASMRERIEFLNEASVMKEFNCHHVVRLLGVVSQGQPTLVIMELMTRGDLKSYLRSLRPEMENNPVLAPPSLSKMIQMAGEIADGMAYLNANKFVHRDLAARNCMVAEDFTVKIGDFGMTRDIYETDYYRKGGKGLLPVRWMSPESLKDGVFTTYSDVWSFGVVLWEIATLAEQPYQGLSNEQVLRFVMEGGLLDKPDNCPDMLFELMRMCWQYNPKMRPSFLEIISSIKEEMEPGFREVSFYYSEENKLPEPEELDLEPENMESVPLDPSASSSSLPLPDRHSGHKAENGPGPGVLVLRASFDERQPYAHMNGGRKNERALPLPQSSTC
Text: as §1

[7] = biological target: T7, ACK1(h) (Homo sapiens, UniProt Q07912)
T7 construct: purchased Eurofins
T7 sequence (Q07912 whole entry): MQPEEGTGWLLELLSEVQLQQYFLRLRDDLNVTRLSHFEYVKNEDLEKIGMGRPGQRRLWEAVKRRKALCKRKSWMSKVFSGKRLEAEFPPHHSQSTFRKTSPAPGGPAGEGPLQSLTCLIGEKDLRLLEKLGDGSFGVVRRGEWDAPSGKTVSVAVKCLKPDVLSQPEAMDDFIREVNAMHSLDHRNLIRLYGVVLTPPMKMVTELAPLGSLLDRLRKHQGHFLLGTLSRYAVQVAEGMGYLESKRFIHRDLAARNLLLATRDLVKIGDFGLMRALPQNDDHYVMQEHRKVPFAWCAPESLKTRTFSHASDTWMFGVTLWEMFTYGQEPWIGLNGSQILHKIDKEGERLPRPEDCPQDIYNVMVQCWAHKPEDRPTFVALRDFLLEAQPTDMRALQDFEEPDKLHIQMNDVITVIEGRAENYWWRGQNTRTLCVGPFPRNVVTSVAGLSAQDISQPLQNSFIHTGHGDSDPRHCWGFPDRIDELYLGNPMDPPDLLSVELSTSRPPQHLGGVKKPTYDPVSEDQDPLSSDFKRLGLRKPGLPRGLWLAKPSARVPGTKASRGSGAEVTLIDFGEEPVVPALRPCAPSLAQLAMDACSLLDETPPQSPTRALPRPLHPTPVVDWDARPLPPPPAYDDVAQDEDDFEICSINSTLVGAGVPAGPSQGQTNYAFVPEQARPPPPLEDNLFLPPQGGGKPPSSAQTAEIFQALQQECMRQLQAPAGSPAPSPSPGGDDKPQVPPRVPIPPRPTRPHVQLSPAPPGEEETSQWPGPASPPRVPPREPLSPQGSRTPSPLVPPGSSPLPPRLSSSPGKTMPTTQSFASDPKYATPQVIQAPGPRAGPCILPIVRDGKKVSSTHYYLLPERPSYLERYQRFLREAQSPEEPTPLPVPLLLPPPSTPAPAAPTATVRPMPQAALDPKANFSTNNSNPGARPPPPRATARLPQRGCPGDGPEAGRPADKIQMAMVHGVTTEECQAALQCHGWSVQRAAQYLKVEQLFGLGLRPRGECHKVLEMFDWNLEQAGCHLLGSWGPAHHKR
Text: as §1

[8] = biological target: T8, LRRK2(h) (Homo sapiens, UniProt Q5S007)
T8 construct: purchased Eurofins
T8 sequence (Q5S007 whole entry): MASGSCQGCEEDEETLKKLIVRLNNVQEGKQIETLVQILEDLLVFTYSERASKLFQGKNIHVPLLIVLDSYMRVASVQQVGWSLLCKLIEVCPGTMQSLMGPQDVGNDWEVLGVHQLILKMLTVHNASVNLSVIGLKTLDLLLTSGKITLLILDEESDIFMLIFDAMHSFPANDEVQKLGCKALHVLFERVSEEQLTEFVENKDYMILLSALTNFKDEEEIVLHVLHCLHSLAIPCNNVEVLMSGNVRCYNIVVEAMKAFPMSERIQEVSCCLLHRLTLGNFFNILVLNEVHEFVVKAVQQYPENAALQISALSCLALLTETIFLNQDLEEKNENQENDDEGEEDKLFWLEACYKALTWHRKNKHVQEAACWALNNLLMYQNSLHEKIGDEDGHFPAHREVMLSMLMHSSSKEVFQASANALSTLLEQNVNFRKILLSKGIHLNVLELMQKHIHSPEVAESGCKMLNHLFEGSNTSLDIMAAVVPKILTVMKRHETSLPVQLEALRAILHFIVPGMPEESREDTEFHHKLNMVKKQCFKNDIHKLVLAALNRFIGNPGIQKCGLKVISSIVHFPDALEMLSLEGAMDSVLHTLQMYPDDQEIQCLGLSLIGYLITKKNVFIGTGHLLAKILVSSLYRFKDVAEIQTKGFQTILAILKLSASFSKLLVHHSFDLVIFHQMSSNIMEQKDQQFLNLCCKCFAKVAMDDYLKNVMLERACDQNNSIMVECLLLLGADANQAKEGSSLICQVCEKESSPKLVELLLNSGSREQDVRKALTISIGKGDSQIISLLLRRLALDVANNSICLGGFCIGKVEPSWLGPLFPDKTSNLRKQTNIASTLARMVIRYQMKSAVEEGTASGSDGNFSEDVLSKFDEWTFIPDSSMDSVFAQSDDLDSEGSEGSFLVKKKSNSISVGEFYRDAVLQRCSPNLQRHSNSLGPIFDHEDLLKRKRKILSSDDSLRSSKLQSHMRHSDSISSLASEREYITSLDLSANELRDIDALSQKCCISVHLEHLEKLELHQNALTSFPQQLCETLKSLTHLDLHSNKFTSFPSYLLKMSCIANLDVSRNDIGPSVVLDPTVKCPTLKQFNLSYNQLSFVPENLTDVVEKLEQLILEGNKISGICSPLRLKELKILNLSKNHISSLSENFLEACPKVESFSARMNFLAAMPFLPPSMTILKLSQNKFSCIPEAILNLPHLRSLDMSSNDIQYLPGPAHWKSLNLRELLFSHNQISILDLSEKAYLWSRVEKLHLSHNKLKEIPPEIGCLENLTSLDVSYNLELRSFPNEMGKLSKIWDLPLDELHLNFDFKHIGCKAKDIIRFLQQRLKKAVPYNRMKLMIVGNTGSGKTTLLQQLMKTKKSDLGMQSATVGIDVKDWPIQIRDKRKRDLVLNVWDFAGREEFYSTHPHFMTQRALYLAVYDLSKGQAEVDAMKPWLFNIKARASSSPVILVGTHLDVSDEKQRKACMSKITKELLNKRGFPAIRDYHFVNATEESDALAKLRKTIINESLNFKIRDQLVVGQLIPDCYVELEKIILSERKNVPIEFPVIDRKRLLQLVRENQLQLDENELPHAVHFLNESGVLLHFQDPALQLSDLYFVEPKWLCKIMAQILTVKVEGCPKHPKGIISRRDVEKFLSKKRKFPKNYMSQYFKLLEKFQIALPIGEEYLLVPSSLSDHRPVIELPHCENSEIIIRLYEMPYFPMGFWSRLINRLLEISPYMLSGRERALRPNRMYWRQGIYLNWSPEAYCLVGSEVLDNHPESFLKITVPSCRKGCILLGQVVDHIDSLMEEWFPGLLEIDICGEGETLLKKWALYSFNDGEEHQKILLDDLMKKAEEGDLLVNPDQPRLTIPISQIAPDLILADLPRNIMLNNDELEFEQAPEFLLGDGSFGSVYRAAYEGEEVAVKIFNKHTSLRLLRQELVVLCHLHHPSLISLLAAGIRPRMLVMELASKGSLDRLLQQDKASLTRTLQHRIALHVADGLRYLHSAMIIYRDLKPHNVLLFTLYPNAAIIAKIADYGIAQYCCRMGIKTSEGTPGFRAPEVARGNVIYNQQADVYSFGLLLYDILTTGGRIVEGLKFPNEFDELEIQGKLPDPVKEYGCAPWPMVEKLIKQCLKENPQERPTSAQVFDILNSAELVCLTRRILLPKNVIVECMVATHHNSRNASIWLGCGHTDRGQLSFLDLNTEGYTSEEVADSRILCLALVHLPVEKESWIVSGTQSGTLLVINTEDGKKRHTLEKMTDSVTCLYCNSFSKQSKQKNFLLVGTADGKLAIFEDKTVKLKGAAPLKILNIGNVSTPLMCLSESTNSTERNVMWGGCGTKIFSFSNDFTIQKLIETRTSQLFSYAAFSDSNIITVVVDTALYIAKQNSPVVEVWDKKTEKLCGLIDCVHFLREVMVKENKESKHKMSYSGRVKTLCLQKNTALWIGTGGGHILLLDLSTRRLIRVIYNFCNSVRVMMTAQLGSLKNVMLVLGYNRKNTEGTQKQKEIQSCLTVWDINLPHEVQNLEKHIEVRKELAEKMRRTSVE
Text: as §1

C=CC(=O)Nc1cc(Nc2nccc(-c3c4n(c5ccccc35)CCCC4)n2)c(OC)cc1N(C)CCNC [Imp3]
inhibition at 1 µM [1]: 91%
IC50 [1]: 80 nM
inhibition at 1 µM [2]: 55%
IC50 [2]: 1370 nM
inhibition at 1 µM [3]: 67%
IC50 [3]: 506 nM
inhibition at 1 µM [4]: 83%
IC50 [4]: 197 nM
inhibition at 1 µM [5]: 74%
IC50 [5]: 321 nM
inhibition at 1 µM [6]: 70%
IC50 [6]: 812 nM
inhibition at 1 µM [7]: 90%
IC50 [7]: 124 nM
inhibition at 1 µM [8]: 93%
IC50 [8]: 120 nM

C=CC(=O)Nc1cc(Nc2nccc(-c3c4n(c5ccccc35)CCCC4)n2)c(OC)cc1N(C)CCN(C)C [SH-1028]
inhibition at 1 µM [1]: 85%
IC50 [1]: 62 nM
inhibition at 1 µM [2]: 61%
IC50 [2]: 1750 nM
inhibition at 1 µM [3]: 58%
IC50 [3]: 349 nM
inhibition at 1 µM [4]: 72%
IC50 [4]: 55 nM
inhibition at 1 µM [5]: 58%
IC50 [5]: 241 nM
inhibition at 1 µM [6]: 38%
IC50 [6]: 574 nM
inhibition at 1 µM [7]: 81%
IC50 [7]: 86 nM
inhibition at 1 µM [8]: 89%
IC50 [8]: 82 nM
